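Five compound concentrations were applied to cells in 96-well plates for 48 hours; endpoints were derived by simple linear interpolation of the resulting dose-response curve. TGI denotes the concentration required for complete inhibition of growth.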
Assays:
Assay in all cases: NCI tumour cell line growth inhibition, 48 h
SF-295 CNS = system: SF-295 CNS
NCI-H226 lung = system: NCI-H226 lung
KM20L2 colon = system: KM20L2 colon
CCRF-CEM leukemia = system: CCRF-CEM leukemia
SW-620 colon = system: SW-620 colon
HOP-18 NSCLC = system: HOP-18 NSCLC
SF-539 CNS = system: SF-539 CNS
OVCAR-3 ovarian = system: OVCAR-3 ovarian
HL-60(TB) leukemia = system: HL-60(TB) leukemia
OVCAR-4 ovarian = system: OVCAR-4 ovarian
SN12K1 renal = system: SN12K1 renal
K-562 leukemia = system: K-562 leukemia
SK-MEL-5 melanoma = system: SK-MEL-5 melanoma
MOLT-4 leukemia = system: MOLT-4 leukemia
HT29 colon = system: HT29 colon
A498 renal = system: A498 renal
P388 leukemia = system: P388 leukemia
KM12 colon = system: KM12 colon
DMS 114 small cell lung = system: DMS 114 small cell lung
LOX IMVI melanoma = system: LOX IMVI melanoma
HOP-92 NSCLC = system: HOP-92 NSCLC
NCI/ADR-RES ovarian = system: NCI/ADR-RES ovarian
HOP-62 NSCLC = system: HOP-62 NSCLC
HCC-2998 colon = system: HCC-2998 colon
OVCAR-5 ovarian = system: OVCAR-5 ovarian
DLD-1 colon = system: DLD-1 colon
SK-OV-3 ovarian = system: SK-OV-3 ovarian
IGROV1 ovarian = system: IGROV1 ovarian
UACC-257 melanoma = system: UACC-257 melanoma
A549 NSCLC = system: A549 NSCLC
NCI-H522 lung = system: NCI-H522 lung
EKVX NSCLC = system: EKVX NSCLC
CAKI-1 renal = system: CAKI-1 renal
COLO 205 colon = system: COLO 205 colon
MALME-3M melanoma = system: MALME-3M melanoma
UO-31 renal = system: UO-31 renal
SK-MEL-2 melanoma = system: SK-MEL-2 melanoma
OVCAR-8 ovarian = system: OVCAR-8 ovarian
HCT-15 colon = system: HCT-15 colon
RXF 393 renal = system: RXF 393 renal
UACC-62 melanoma = system: UACC-62 melanoma
HCT-116 colon = system: HCT-116 colon
SN12C renal = system: SN12C renal
SF-268 CNS = system: SF-268 CNS
U251 CNS = system: U251 CNS
SK-MEL-28 melanoma = system: SK-MEL-28 melanoma
NCI-H460 lung = system: NCI-H460 lung
P388/ADR leukemia = system: P388/ADR leukemia
SNB-75 CNS = system: SNB-75 CNS
SNB-19 CNS = system: SNB-19 CNS
NCI-H23 lung = system: NCI-H23 lung
MCF7 breast = system: MCF7 breast
RPMI-8226 leukemia = system: RPMI-8226 leukemia
DMS 273 small cell lung = system: DMS 273 small cell lung
SNB-78 CNS = system: SNB-78 CNS
TK-10 renal = system: TK-10 renal
M19-MEL melanoma = system: M19-MEL melanoma
XF 498 CNS = system: XF 498 CNS
ACHN renal = system: ACHN renal
LXFL 529 NSCLC = system: LXFL 529 NSCLC
SR leukemia = system: SR leukemia
RXF-631 renal = system: RXF-631 renal
786-0 renal = system: 786-0 renal
M14 melanoma = system: M14 melanoma

## CN(C)C(=O)/C=C/c1c[nH]c(=O)[nH]c1=O
SF-295 CNS
  TGI: > 500 µM
NCI-H226 lung
  TGI: > 500 µM
KM20L2 colon
  TGI: > 500 µM
CCRF-CEM leukemia
  TGI: > 500 µM
SW-620 colon
  TGI: > 500 µM
HOP-18 NSCLC
  TGI: > 500 µM
SF-539 CNS
  TGI: > 500 µM
OVCAR-3 ovarian
  TGI: > 500 µM
HL-60(TB) leukemia
  TGI: > 316 µM
OVCAR-4 ovarian
  TGI: > 500 µM
SN12K1 renal
  TGI: > 500 µM
K-562 leukemia
  TGI: > 500 µM
SK-MEL-5 melanoma
  TGI: > 500 µM
MOLT-4 leukemia
  TGI: > 500 µM
HT29 colon
  TGI: > 500 µM
A498 renal
  TGI: > 500 µM
P388 leukemia
  TGI: > 281 µM
KM12 colon
  TGI: > 500 µM
DMS 114 small cell lung
  TGI: > 500 µM
LOX IMVI melanoma
  TGI: > 500 µM
HOP-92 NSCLC
  TGI: > 500 µM
NCI/ADR-RES ovarian
  TGI: > 500 µM
HOP-62 NSCLC
  TGI: > 500 µM
HCC-2998 colon
  TGI: > 500 µM
OVCAR-5 ovarian
  TGI: > 500 µM
DLD-1 colon
  TGI: > 500 µM
SK-OV-3 ovarian
  TGI: > 280 µM
IGROV1 ovarian
  TGI: > 500 µM
UACC-257 melanoma
  TGI: > 500 µM
A549 NSCLC
  TGI: > 500 µM
NCI-H522 lung
  TGI: > 500 µM
EKVX NSCLC
  TGI: > 281 µM
CAKI-1 renal
  TGI: > 500 µM
COLO 205 colon
  TGI: > 500 µM
MALME-3M melanoma
  TGI: > 500 µM
UO-31 renal
  TGI: > 500 µM
SK-MEL-2 melanoma
  TGI: > 500 µM
OVCAR-8 ovarian
  TGI: > 500 µM
HCT-15 colon
  TGI: > 500 µM
RXF 393 renal
  TGI: > 500 µM
UACC-62 melanoma
  TGI: > 500 µM
HCT-116 colon
  TGI: > 500 µM
SN12C renal
  TGI: > 500 µM
SF-268 CNS
  TGI: > 500 µM
U251 CNS
  TGI: > 500 µM
SK-MEL-28 melanoma
  TGI: > 500 µM
NCI-H460 lung
  TGI: > 500 µM
P388/ADR leukemia
  TGI: > 281 µM
SNB-75 CNS
  TGI: > 500 µM
SNB-19 CNS
  TGI: > 500 µM
NCI-H23 lung
  TGI: > 500 µM
MCF7 breast
  TGI: > 500 µM
RPMI-8226 leukemia
  TGI: > 316 µM
DMS 273 small cell lung
  TGI: > 500 µM

## CS/C(=C(\S)c1ccccc1)c1ccccc1
SF-295 CNS
  TGI: > 100 µM
NCI-H226 lung
  TGI: > 100 µM
KM20L2 colon
  TGI: > 31.6 µM
SW-620 colon
  TGI: > 100 µM
HOP-18 NSCLC
  TGI: > 100 µM
SF-539 CNS
  TGI: > 100 µM
OVCAR-3 ovarian
  TGI: > 100 µM
HL-60(TB) leukemia
  TGI: > 100 µM
OVCAR-4 ovarian
  TGI: > 100 µM
K-562 leukemia
  TGI: > 100 µM
SNB-78 CNS
  TGI: > 100 µM
SK-MEL-5 melanoma
  TGI: > 100 µM
HT29 colon
  TGI: > 100 µM
A498 renal
  TGI: > 100 µM
KM12 colon
  TGI: > 100 µM
DMS 114 small cell lung
  TGI: > 100 µM
LOX IMVI melanoma
  TGI: > 100 µM
TK-10 renal
  TGI: > 100 µM
M19-MEL melanoma
  TGI: > 100 µM
XF 498 CNS
  TGI: > 100 µM
HOP-92 NSCLC
  TGI: > 100 µM
HOP-62 NSCLC
  TGI: > 100 µM
HCC-2998 colon
  TGI: > 100 µM
OVCAR-5 ovarian
  TGI: > 100 µM
DLD-1 colon
  TGI: > 100 µM
SK-OV-3 ovarian
  TGI: > 100 µM
IGROV1 ovarian
  TGI: > 100 µM
UACC-257 melanoma
  TGI: > 100 µM
A549 NSCLC
  TGI: > 100 µM
NCI-H522 lung
  TGI: > 100 µM
EKVX NSCLC
  TGI: > 100 µM
ACHN renal
  TGI: > 100 µM
LXFL 529 NSCLC
  TGI: > 100 µM
CAKI-1 renal
  TGI: > 100 µM
COLO 205 colon
  TGI: > 100 µM
MALME-3M melanoma
  TGI: > 100 µM
UO-31 renal
  TGI: > 100 µM
SK-MEL-2 melanoma
  TGI: > 100 µM
OVCAR-8 ovarian
  TGI: > 100 µM
HCT-15 colon
  TGI: > 100 µM
RXF 393 renal
  TGI: > 100 µM
UACC-62 melanoma
  TGI: > 100 µM
HCT-116 colon
  TGI: > 100 µM
SR leukemia
  TGI: > 100 µM
RXF-631 renal
  TGI: > 100 µM
SN12C renal
  TGI: > 100 µM
SF-268 CNS
  TGI: > 100 µM
U251 CNS
  TGI: > 100 µM
SK-MEL-28 melanoma
  TGI: > 100 µM
NCI-H460 lung
  TGI: > 100 µM
SNB-75 CNS
  TGI: > 100 µM
SNB-19 CNS
  TGI: > 100 µM
786-0 renal
  TGI: > 100 µM
NCI-H23 lung
  TGI: > 100 µM
RPMI-8226 leukemia
  TGI: > 100 µM
M14 melanoma
  TGI: > 100 µM
DMS 273 small cell lung
  TGI: > 100 µM

— PubChem BioAssay (NCI)
